Experimental data as given in PubChem BioAssay AID256 (DTP/NCI, 2004).
Several values for one entry are separate records, joined by “and”; a condition that tells them apart may be missing. Identical values can stand only once. Toxic doses and inconclusive results are not listed.

System: CD2F1 mice, L1210 leukemia ip, survival T/C
Test: NCI In Vivo Anticancer Drug Screen. Data for tumor model L1210 Leukemia (intraperitoneal) in CD2F1 (CDF1) mice
Details: higher = longer survival
In short: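 Ratio T/C, where T is the treated-group value and C the vehicle-dosed control value, from mice implanted with a transplantable tumor.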

[1] = endpoint: mean survival time, dose: 100.0 mg/kg/injection, schedule: Q01DX009 (ip), vehicle: saline with Tween-80
[2] = endpoint: mean survival time, dose: 100.0 mg/kg/injection, schedule: Q04DX003 (ip), vehicle: saline with Tween-80
[3] = endpoint: mean survival time, dose: 200.0 mg/kg/injection, schedule: Q01DX009 (ip), vehicle: saline with Tween-80
[4] = endpoint: mean survival time, dose: 200.0 mg/kg/injection, schedule: Q04DX003 (ip), vehicle: saline with Tween-80
[5] = endpoint: mean survival time, dose: 400.0 mg/kg/injection, schedule: Q04DX003 (ip), vehicle: saline with Tween-80
[6] = endpoint: mean survival time, dose: 100.0 mg/kg/injection, schedule: Q04DX002 (ip), vehicle: saline with Tween-80
[7] = endpoint: mean survival time, dose: 200.0 mg/kg/injection, schedule: Q04DX002 (ip), vehicle: saline with Tween-80
[8] = endpoint: mean survival time, dose: 50.0 mg/kg/injection, schedule: Q04DX002 (ip), vehicle: saline with Tween-80
[9] = endpoint: mean survival time, dose: 50.0 mg/kg/injection, schedule: Q01DX009 (ip), vehicle: saline with Tween-80
[10] = endpoint: mean survival time, dose: 100.0 mg/kg/injection, schedule: Q01DX001 (ip), vehicle: saline with Tween-80
[11] = endpoint: mean survival time, dose: 200.0 mg/kg/injection, schedule: Q01DX001 (ip), vehicle: saline with Tween-80

CN1CCCC1CCNc1nc(C(Cl)(Cl)Cl)nc2cc(Cl)ccc12 (stereo unspecified)
T/C [1]: 98 % of control | T/C [2]: 95 % of control | T/C [3]: 98 % of control | T/C [4]: 90 % of control | T/C (endpoint: mean survival time, dose: 400.0 mg/kg/injection, schedule: Q01DX009 (ip), vehicle: saline with Tween-80): 101 % of control | T/C [5]: 100 % of control

COc1cc(CN(C)CCO)ccc1OCc1ccccc1
T/C [2]: 102 % of control | T/C [4]: 96 % of control

CC(C)(C)SC(=O)C1(C)OC1c1ccc([N+](=O)[O-])cc1 (stereo unspecified)
T/C (endpoint: mean survival time, dose: 100.0 mg/kg/injection, schedule: Q01DX001 (ip), vehicle: Klucel (hydroxypropylcellulose) (HPC)): 97 % of control | T/C (endpoint: mean survival time, dose: 200.0 mg/kg/injection, schedule: Q01DX001 (ip), vehicle: Klucel (hydroxypropylcellulose) (HPC)): 94 % of control | T/C (endpoint: mean survival time, dose: 400.0 mg/kg/injection, schedule: Q01DX001 (ip), vehicle: Klucel (hydroxypropylcellulose) (HPC)): 97 % of control

CCOC(=O)/C=C(\C)CO
T/C [6]: 88 % of control | T/C [7]: 103 % of control | T/C (endpoint: mean survival time, dose: 400.0 mg/kg/injection, schedule: Q04DX002 (ip), vehicle: saline with Tween-80): 103 % of control

O=C1C2CCN(CC2)C1CN1CCC2(CC1)C(=O)NCN2c1ccccc1 (stereo unspecified)
T/C [8]: 93 % of control | T/C [6]: 112 % of control

CC[N+](C)(CC)Cc1ccc([NH-])c([NH-])c1.[Cl][Pt+2][Cl]
T/C (endpoint: mean survival time, dose: 3.13 mg/kg/injection, schedule: Q04DX003 (ip), vehicle: water): 90 % of control | T/C (endpoint: mean survival time, dose: 6.25 mg/kg/injection, schedule: Q04DX003 (ip), vehicle: water): 95 % of control | T/C (endpoint: mean survival time, dose: 12.5 mg/kg/injection, schedule: Q04DX003 (ip), vehicle: water): 94 % of control

CC(=O)C1=C(C)NC(C)=C(C(C)=O)C1c1cccc([N+](=O)[O-])c1
T/C [2]: 94 % of control | T/C [4]: 91 % of control | T/C [5]: 96 % of control

O=c1[nH]c2ccccc2o1
T/C (endpoint: mean survival time, dose: 12.5 mg/kg/injection, schedule: Q01DX009 (iv), vehicle: methylcellulose (MC)): 95 % of control | T/C (endpoint: mean survival time, dose: 25.0 mg/kg/injection, schedule: Q01DX009 (iv), vehicle: methylcellulose (MC)): 90 % of control | T/C (endpoint: mean survival time, dose: 50.0 mg/kg/injection, schedule: Q01DX009 (iv), vehicle: methylcellulose (MC)): 94 % of control

N#CC1CCCC1=N (stereo unspecified)
T/C (endpoint: mean survival time, dose: 12.5 mg/kg/injection, schedule: Q01DX009 (ip), vehicle: saline with Tween-80): 94 % of control | T/C (endpoint: mean survival time, dose: 25.0 mg/kg/injection, schedule: Q01DX009 (ip), vehicle: saline with Tween-80): 97 % of control | T/C (endpoint: mean survival time, dose: 100.0 mg/kg/injection, schedule: Q01DX001 (ip), vehicle: saline): 110 % of control | T/C (endpoint: mean survival time, dose: 200.0 mg/kg/injection, schedule: Q01DX001 (ip), vehicle: saline): 104 % of control | T/C (endpoint: mean survival time, dose: 400.0 mg/kg/injection, schedule: Q01DX001 (ip), vehicle: saline): 111 % of control

O=S=Nc1ccc(S(=O)(=O)c2ccc(N=S=O)cc2)cc1
T/C [9]: 96 % of control | T/C [2]: 95 % of control | T/C [3]: 101 % of control | T/C [4]: 95 % of control

C=CCNC(=S)n1cnc(N)n1
T/C (endpoint: mean survival time, dose: 25.0 mg/kg/injection, schedule: Q04DX002 (ip), vehicle: saline with Tween-80): 104 % of control | T/C [8]: 96 % of control | T/C [6]: 104 % of control and 105 % of control

CC(C)(C)C(=O)CC(=O)C(C)(C)C.CC(C)(C)C(=O)CC(=O)C(C)(C)C.CC(C)(C)C(=O)CC(=O)C(C)(C)C.[Y]
T/C [2]: 97 % of control | T/C [4]: 95 % of control | T/C [5]: 91 % of control

N#CC(c1ccccn1)N1CCOCC1 (stereo unspecified)
T/C (endpoint: mean survival time, dose: 12.5 mg/kg/injection, schedule: Q04DX002 (ip), vehicle: saline with Tween-80): 97 % of control and 100 % of control | T/C (endpoint: mean survival time, dose: 25.0 mg/kg/injection, schedule: Q04DX003 (ip), vehicle: saline with Tween-80): 104 % of control | T/C (endpoint: mean survival time, dose: 50.0 mg/kg/injection, schedule: Q01DX001 (ip), vehicle: saline with Tween-80): 100 % of control | T/C [9]: 89 % of control and 103 % of control | T/C (endpoint: mean survival time, dose: 50.0 mg/kg/injection, schedule: Q04DX003 (ip), vehicle: saline with Tween-80): 109 % of control | T/C [10]: 94 % of control | T/C [1]: 89 % of control and 95 % of control | T/C [2]: 107 % of control | T/C [11]: 100 % of control | T/C [7]: 98 % of control

CNC(=O)OCc1c(COC(=O)NC)c(-c2ccc(F)cc2)n2c1CCC2
T/C (endpoint: mean survival time, dose: 3.13 mg/kg/injection, schedule: Q01DX009 (ip), vehicle: Klucel (hydroxypropylcellulose) (HPC)): 115 % of control | T/C (endpoint: mean survival time, dose: 6.25 mg/kg/injection, schedule: Q01DX009 (ip), vehicle: Klucel (hydroxypropylcellulose) (HPC)): 107 % of control | T/C (endpoint: mean survival time, dose: 12.5 mg/kg/injection, schedule: Q01DX009 (ip), vehicle: Klucel (hydroxypropylcellulose) (HPC)): 118 % of control

Nc1ccccc1Cl
T/C (endpoint: mean survival time, dose: 31.25 mg/kg/injection, schedule: Q01DX009 (ip), vehicle: saline with Tween-80): 95 % of control | T/C (endpoint: mean survival time, dose: 31.25 mg/kg/injection, schedule: Q04DX003 (ip), vehicle: saline with Tween-80): 97 % of control | T/C (endpoint: mean survival time, dose: 62.5 mg/kg/injection, schedule: Q01DX009 (ip), vehicle: saline with Tween-80): 91 % of control | T/C (endpoint: mean survival time, dose: 62.5 mg/kg/injection, schedule: Q04DX003 (ip), vehicle: saline with Tween-80): 101 % of control | T/C (endpoint: mean survival time, dose: 125.0 mg/kg/injection, schedule: Q01DX009 (ip), vehicle: saline with Tween-80): 93 % of control | T/C (endpoint: mean survival time, dose: 125.0 mg/kg/injection, schedule: Q04DX003 (ip), vehicle: saline with Tween-80): 101 % of control

O=C[C@@H](CO)O[C@H](C=O)c1c[nH]c(=O)[nH]c1=O
T/C (endpoint: median survival time, dose: 2.5 mg/kg/injection, schedule: Q01DX009 (ip), vehicle: saline): 118 % of control | T/C (endpoint: median survival time, dose: 7.5 mg/kg/injection, schedule: Q04DX003 (ip), vehicle: saline): 102 % of control | T/C (endpoint: median survival time, dose: 12.5 mg/kg/injection, schedule: Q01DX009 (ip), vehicle: water): 124 % of control | T/C (endpoint: median survival time, dose: 15.0 mg/kg/injection, schedule: Q04DX003 (ip), vehicle: saline): 102 % of control | T/C (endpoint: median survival time, dose: 30.0 mg/kg/injection, schedule: Q04DX003 (ip), vehicle: saline): 114 % of control | T/C (endpoint: median survival time, dose: 40.0 mg/kg/injection, schedule: Q01DX009 (ip), vehicle: saline): 158 % of control | T/C (endpoint: median survival time, dose: 50.0 mg/kg/injection, schedule: Q01DX009 (ip), vehicle: saline): 158 % of control | T/C (endpoint: median survival time, dose: 54.0 mg/kg/injection, schedule: Q04DX003 (ip), vehicle: saline): 156 % of control | T/C (endpoint: median survival time, dose: 60.0 mg/kg/injection, schedule: Q04DX003 (ip), vehicle: saline): 119 % of control | T/C (endpoint: median survival time, dose: 66.7 mg/kg/injection, schedule: Q04DX003 (ip), vehicle: saline): 151 % of control | T/C (endpoint: median survival time, dose: 90.0 mg/kg/injection, schedule: Q04DX003 (ip), vehicle: saline): 178 % of control | T/C (endpoint: median survival time, dose: 100.0 mg/kg/injection, schedule: Q01DX009 (ip), vehicle: water): 89 % of control | T/C (endpoint: median survival time, dose: 100.5 mg/kg/injection, schedule: Q04DX003 (ip), vehicle: saline): 164 % of control | T/C (endpoint: median survival time, dose: 105.0 mg/kg/injection, schedule: Q04DX003 (ip), vehicle: saline): 229 % of control | T/C (endpoint: median survival time, dose: 120.0 mg/kg/injection, schedule: Q04DX003 (ip), vehicle: saline): 175 % of control and 184 % of control | T/C (endpoint: median survival time, dose: 135.0 mg/kg/injection, schedule: Q04DX003 (ip), vehicle: saline): 164 % of control | T/C (endpoint: median survival time, dose: 165.0 mg/kg/injection, schedule: Q04DX003 (ip), vehicle: saline): 625 % of control | T/C (endpoint: median survival time, dose: 180.0 mg/kg/injection, schedule: Q04DX003 (ip), vehicle: saline): 218 % of control and 228 % of control | T/C (endpoint: median survival time, dose: 224.9 mg/kg/injection, schedule: Q04DX003 (ip), vehicle: saline): 202 % of control

CC(C)C1CCC(C)C23CCC(=O)C2C13 (stereo unspecified)
T/C (endpoint: mean survival time, dose: 100.0 mg/kg/injection, schedule: Q01DX001 (ip), vehicle: acetone): 100 % of control | T/C (endpoint: mean survival time, dose: 200.0 mg/kg/injection, schedule: Q01DX001 (ip), vehicle: acetone): 95 % of control | T/C (endpoint: mean survival time, dose: 400.0 mg/kg/injection, schedule: Q01DX001 (ip), vehicle: acetone): 110 % of control

CC1(C)COC(C)(C(=O)O)OC1
T/C [2]: 98 % of control | T/C [4]: 98 % of control | T/C [5]: 96 % of control

C=CCN(N=O)C(=O)OCC
T/C (endpoint: mean survival time, dose: 12.5 mg/kg/injection, schedule: Q01DX009 (ip), vehicle: other): 107 % of control | T/C (endpoint: mean survival time, dose: 25.0 mg/kg/injection, schedule: Q01DX009 (ip), vehicle: other): 107 % of control | T/C (endpoint: mean survival time, dose: 50.0 mg/kg/injection, schedule: Q01DX009 (ip), vehicle: other): 104 % of control | T/C (endpoint: mean survival time, dose: 100.0 mg/kg/injection, schedule: Q01DX009 (ip), vehicle: other): 113 % of control

Cc1ccc(NCC(=O)O)c([N+](=O)[O-])c1
T/C [2]: 95 % of control | T/C [4]: 103 % of control

COc1ccc(CCOS(=O)(=O)c2ccc(C)cc2)cc1
T/C [10]: 103 % of control | T/C [11]: 101 % of control | T/C (endpoint: mean survival time, dose: 400.0 mg/kg/injection, schedule: Q01DX001 (ip), vehicle: saline with Tween-80): 101 % of control

Cc1cc(C)c(C(=O)CC(O)(C(F)(F)F)C(F)(F)F)c(C)c1
T/C [2]: 115 % of control | T/C [4]: 107 % of control | T/C [5]: 107 % of control
